# Residues, ends and D or L forms follow the SMILES beside them. No end group written: not given here.
# Molecular target: Lp(a) formation (coupling between apo(a) and LDL) (Homo sapiens, UniProt P08519)
# Test: in vitro Lp(a) formation assay: coupling of recombinant human apo(a) with LDL, western blot with densitometry or visual inspection
# Type: biochemical
# Parameters: key to Relative Activity: An easily detectable change from control was assigned as (+); a marked change from control was assigned as (++)
# Conditions: for inhibition at 125 µM: 125 μM peptide, densitometry of Lp(a) bands; for inhibition at 125 µM / IC50: 37° C. for 30 minutes; for IC50: western blot, read-out: IC50 (concentration required to inhibit 50% of Lp(a) formation)
# Experimental: As pointed out above, the peptides of this invention are useful for treating vascular diseases due to their ability to inhibit formation of Lp(a). The compounds have been evaluated in an in vitro assay which established that the subject compounds are potent inhibitors of Lp(a) formation. The assay was carried out by mixing approximately equal quantities of recombinant human apo(a) with low-density lipoprotein (LDL) in a […] microcentrifuge tube. Control vessels contained no invention peptide, whereas test vessels contained a peptide of Formula I. The mixtures were incubated at 37° C. for 30 minutes. The coupling between apo(a) and LDL was quenched by addition of sodium dodecylsulfate (SDS)-PAGE loading buffer. The mixture is next resolved on 4% polyacrylamide gels, and Lp(a) is detected by western blotting using a monospecific human Lp(a) antibody. The intensity of the Lp(a) bands on the blots is measured by a commercial densitometer.
# Table I below gives the percent inhibition of Lp(a) formation at 125 μM concentration of representative peptides of the invention, as well as the concentration of representative compounds required to inhibit 50% of Lp(a) formation (IC50).
# Additional compounds were evaluated in the above assay, and the western blots were visually inspected for changes in Lp(a) particle formation as a consequence of peptide mediated inhibition. Experimental lanes were visually compared to control lanes and assessed as follows: An easily detectable change from control was assigned as (+); a marked change from control was assigned as (++).
# Lp(a) formation (coupling between apo(a) and LDL), sequence (P08519 20-2040): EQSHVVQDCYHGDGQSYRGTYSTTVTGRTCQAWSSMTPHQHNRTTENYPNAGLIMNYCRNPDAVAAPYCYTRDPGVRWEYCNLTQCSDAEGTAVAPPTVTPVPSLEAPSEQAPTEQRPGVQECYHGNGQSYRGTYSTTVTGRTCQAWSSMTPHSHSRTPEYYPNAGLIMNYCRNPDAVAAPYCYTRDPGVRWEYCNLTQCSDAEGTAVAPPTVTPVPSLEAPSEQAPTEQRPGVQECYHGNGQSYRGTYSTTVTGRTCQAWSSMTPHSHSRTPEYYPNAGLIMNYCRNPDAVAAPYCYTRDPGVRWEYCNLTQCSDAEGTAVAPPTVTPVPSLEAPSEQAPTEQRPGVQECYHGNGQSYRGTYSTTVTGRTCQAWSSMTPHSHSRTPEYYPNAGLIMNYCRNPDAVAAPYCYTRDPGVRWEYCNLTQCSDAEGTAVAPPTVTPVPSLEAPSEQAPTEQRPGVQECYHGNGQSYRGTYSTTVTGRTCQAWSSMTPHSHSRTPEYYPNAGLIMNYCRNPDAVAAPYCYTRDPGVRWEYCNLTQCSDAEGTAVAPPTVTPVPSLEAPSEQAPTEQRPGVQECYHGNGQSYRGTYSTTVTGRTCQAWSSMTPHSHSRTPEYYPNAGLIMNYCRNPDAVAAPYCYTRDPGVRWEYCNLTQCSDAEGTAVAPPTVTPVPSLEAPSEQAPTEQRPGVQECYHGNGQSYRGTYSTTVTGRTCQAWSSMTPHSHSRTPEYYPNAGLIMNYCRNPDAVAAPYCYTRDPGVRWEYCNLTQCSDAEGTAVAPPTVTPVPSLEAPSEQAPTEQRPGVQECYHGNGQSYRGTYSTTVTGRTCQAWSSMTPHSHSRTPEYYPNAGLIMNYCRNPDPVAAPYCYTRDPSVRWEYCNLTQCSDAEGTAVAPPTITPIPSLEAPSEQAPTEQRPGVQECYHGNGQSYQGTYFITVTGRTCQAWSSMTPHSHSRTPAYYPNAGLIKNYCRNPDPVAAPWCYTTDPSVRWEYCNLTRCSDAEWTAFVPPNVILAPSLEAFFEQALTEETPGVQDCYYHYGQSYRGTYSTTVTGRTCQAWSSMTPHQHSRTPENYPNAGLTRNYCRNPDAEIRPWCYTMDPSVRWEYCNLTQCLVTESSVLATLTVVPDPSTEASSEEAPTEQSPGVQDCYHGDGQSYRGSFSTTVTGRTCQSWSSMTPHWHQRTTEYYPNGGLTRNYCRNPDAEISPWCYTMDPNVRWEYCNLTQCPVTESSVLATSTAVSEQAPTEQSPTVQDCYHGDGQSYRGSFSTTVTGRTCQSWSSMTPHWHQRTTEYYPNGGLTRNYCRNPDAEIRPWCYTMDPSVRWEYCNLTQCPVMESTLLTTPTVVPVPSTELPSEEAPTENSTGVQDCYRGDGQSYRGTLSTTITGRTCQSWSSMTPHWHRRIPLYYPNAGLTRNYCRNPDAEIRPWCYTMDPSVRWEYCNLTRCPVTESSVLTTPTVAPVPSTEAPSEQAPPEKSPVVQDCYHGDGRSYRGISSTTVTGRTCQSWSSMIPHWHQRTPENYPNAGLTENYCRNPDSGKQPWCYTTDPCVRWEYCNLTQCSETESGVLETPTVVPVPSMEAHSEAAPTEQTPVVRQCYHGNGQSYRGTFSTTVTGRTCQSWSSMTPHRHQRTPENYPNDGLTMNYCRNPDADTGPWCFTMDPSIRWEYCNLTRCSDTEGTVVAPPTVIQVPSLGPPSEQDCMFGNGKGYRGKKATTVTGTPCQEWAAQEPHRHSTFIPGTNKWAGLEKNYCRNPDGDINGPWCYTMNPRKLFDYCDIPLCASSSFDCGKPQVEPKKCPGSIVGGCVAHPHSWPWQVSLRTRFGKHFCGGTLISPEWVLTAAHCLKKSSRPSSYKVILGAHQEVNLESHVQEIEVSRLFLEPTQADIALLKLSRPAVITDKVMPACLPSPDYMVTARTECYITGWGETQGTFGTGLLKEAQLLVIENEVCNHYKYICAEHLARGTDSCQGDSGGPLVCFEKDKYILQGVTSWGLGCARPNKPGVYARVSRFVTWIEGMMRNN
Compound,inhibition at 125 µM [%],IC50 [µM],"Relative Activity (western blots visually inspected, experimental lanes compared to control lanes)"
AQCYK [Ala--Gln--Cys--Tyr--Lys],36.9,–,–
NCCCC[C@H](NC(=O)[C@H](Cc1ccc(O)cc1)NC(=O)[C@@H](N)CS)C(=O)O [Cys--Tyr--Lys] (H-Cys-Tyr-Lys-OH),90,50,–
CC(=O)N[C@@H](CS)C(=O)N[C@@H](Cc1ccc(O)cc1)C(=O)N[C@@H](CCCCN)C(N)=O [Ac--Cys--Tyr--Lys--NH2] (Ac-Cys-Tyr-Lys-NH2),–,–,+
IACYK [Ile--Ala--Cys--Tyr--Lys],29.8,–,–

# Other lines, results leading:
inhibition at 125 µM [%],IC50 [µM],"Relative Activity (western blots visually inspected, experimental lanes compared to control lanes)",Compound
50.1,109,–,"IQCYK [Ile--Gln--Cys--Tyr--Lys, Ile-Gln-Cys-Tyr-Lys]"
76.4,–,–,IQCAK [Ile--Gln--Cys--Ala--Lys]

# Reference: patent publication US5786335A, “Sulfhydryl containing peptides for treating vascular disease” (Warner-Lambert Company, priority 1996, dated 1998)
